Here are results for three compounds from patent US8729047B2, “Compositions for inhibiting redox-sensitive GTPases” (Board of Regents, The University of Texas System, priority 2010, dated 2014).

The target in one assay is Ras (Homo sapiens, UniProt P01112). The settings on record: determined previously (Lenzen et al.; Heo et al.); read-out: trueKD GDP; cited from earlier work.
The target of the next assay is RhoC (Homo sapiens, UniProt P08134). Put plainly: RhoC expression (Western) and RhoC activity assay in cells. Format: cell-based. Also on record: endogenous in cells; host or cells: SUM149, SUM102, SW480, HCCLM3 (endogenous); HME-RhoC (transfected with wild type RhoC). As to the method: FIG. 14. Determination of cell invasiveness in the presence and absence of thiopurines and/or redox agents. […] Western blot analysis representing the total expression of RhoC in these cells also is shown. (B) Experimental procedures for the determination of the time-dependent motility of cells using the QCM Cell Invasion Assay kit in the presence and absence of 6-TG and DETA/NO are described elsewhere herein.
Cells were lysed in an extraction buffer containing 50 mM NaCl, 5 mM MgCl2, 1 mM ethylenediaminetetraacetic acid (EDTA), 0.1 mM diethylenetriaminepentaacetic acid (DTPA), and 0.1% NP40 in 150 mM TrisHCl (pH 8.0). The content of […] RhoC in cells then was determined by using Western analysis that relies on a monoclonal anti-RhoC antibody (Biocompare, South San Francisco, Calif.). To determine RhoC activity, the colorimetric RhoA activation assay Biochem Kit (Cytoskeleton, Denver, Colo.) was used essentially as described in the previous study (Hall et al. Neoplasia 10, 797-803 (2008)) except that the RhoC specific antibody (vide supra), instead of the RhoA antibody included in the assay kit, was used for this analysis.

In the next assay the target is Rac1 (Homo sapiens, UniProt P63000). Put plainly: Guanine nucleotide exchange of [3H]GDP-loaded GTPase with 6-TGDP (FIG. 13A). Format: binding. Also on record: made in house; host or cells: E. coli. As to the method: FIG. 13. Guanine nucleotide exchange of small GTPases with 6-TGDP. (A) To monitor 6-TGDP-mediated GTPase GDP dissociation, [^3H]GDP-loaded GTPase (1 μM) was incubated with 6-TGDP (0-2000 μM) for 1 h. (B) To monitor GTPase 6-TGDP dissociation by GDP (0-2000 μM) in the presence and absence of dithiothreitol (DTT), 6-TGDP-loaded GTPase (˜1 μM) was treated with .NO2 (˜3 μM) under anaerobic conditions and was incubated with various concentrations of [^3H]GDP (0-2000 μM) in the presence and absence of DTT (10 mM) for 1 h. For all assays, aliquots were withdrawn and spotted onto nitrocellulose filters. The filters were then washed three times with an assay buffer, and radioactivity was determined using a Beckman-Coulter scintillation counter. The resultant radioactivity (dpm) values associated with GTPase-bound [^3H]GDP were converted into the fraction of mol nucleotide per mol total GTPase. The data presented represent mean and standard error values from triplicate measurements. The apparent dissociation constants (appKD values) of GTPase 6-TGDP association ([^3H]GDP dissociation, A); and 6-TGDP dissociation ([3H]GDP association, B) were obtained by fitting the data to a simple dissociation and association, respectively. (A) The ^appKD values of Ras, RhoC, RhoA and Rac1 for 6-TGDP, are, respectively, 2300, 230, 224, and 245 μM [6-TGDP]. (B) The appKD values of RhoC with and without DTT are, respectively, 560, and 1000 μM [[^3H]GDP], whereas the ^appKD values of Ras with and without DTT are 530, and 520 μM [[^3H]GDP], respectively. The standard errors of each ^appKD value are less than 10% of their given values, and regression values associated with the fit were r^2>0.9560.
A kinetic assay method using radiolabeled GDP ([^3H]GDP) was established. The apparent dissociation constants (^appKD 6-TGDP) of Rho GTPases (including RhoA, Cdc42, and Rac1/2/3) and Ras with 6-TGDP were determined (FIG. 13). The results of this preliminary kinetic study provided strong support for the mechanism proposed for the role of 6-TGNP in RhoC inactivation (FIG. 7).
(§1) The true dissociation constant (^trueKD 6-TGDP) of Ras, RhoC, RhoA and Rac1 for 6-TGDP was then calculated to be ˜20.7 pM, 212 μM, 208 μM, and 158 μM [6-TGDP] by using a compensation equation, ^trueKD 6-TGDP=^appKD 6-TGDP/(1+[GDP]/^trueKD GDP) (95), in conjunction with the values given [(^appKD 6-TGDP of Ras, RhoC, RhoA, and Rac1=2300, 230, 224, and 245 μM (FIG. 13) and ^trueKD GDP=9 pM, 12 μM, 13 μM and 1.8 μM, respectively. The ^trueKD GDP of Ras, RhoA and Rac1 was determined previously (Lenzen et al. Biochemistry 37, 7420-7430 (1998); Heo et al. Biochemistry 44, 6573-6585 (2005)) and the ^trueKD GDP of RhoC was further determined. Example: ^trueKD 6-TGDP for Ras=2300 μM/(1+1 μM GDP/[…])=[…] [6-TGDP]].

In another assay the test system is Rho GTPases. In words: Binding of 6-TGDP compared with GDP (Example 2). The note with it: Example 2, FIG. 13 values. As to the method:
as §1

Where two headings read alike, the source gives them in different places.

RhoC, sequence (P08134 whole entry): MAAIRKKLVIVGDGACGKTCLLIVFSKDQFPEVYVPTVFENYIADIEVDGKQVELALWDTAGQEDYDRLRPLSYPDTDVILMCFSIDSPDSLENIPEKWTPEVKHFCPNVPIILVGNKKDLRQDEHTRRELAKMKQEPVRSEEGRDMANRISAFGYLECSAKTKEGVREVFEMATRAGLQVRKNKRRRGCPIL
Ras, sequence (P01112 whole entry): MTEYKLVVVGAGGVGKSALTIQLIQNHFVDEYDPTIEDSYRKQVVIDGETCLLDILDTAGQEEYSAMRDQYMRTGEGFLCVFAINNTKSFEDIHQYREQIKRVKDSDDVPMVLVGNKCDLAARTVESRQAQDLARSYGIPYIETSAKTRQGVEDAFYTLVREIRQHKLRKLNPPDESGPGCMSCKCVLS

On to `Nc1nc2c(ncn2[C@@H]2O[C@H](COP(=O)(O)OP(=O)(O)O)[C@@H](O)[C@H]2O)c(=O)[nH]1` [GDP], for which the Kd at Ras was 9 pM.

Consider `Nc1nc2nc[nH]c2c(=S)[nH]1` [6-TG, 6-thioguanine], for which the “level of total RhoC expression” value at RhoC (SUM149 and HME-RhoC cells, 6-TG three or more days) was “not changed”. Also, on RhoC (SUM149 and HME-RhoC cells, both 6-TG and DETA/NO (or GSNO), three days), the RhoC activity result was “essentially no RhoC activity was detected”. For the same compound, the “activity of RhoC” value on RhoC (SW480 and HCCLM3 cells, 6-TG and a NO donor, not shown) is reported as “drastically diminished”.

Take `Nc1nc2c(ncn2[C@@H]2O[C@H](COP(=O)(O)OP(=O)(O)O)[C@@H](O)[C@H]2O)c(=S)[nH]1` [6-TGDP, 6-thioguanosine diphosphate]: the Kd on Rac1 ([3H]GDP-loaded GTPase 1 μM, 6-TGDP 0-2000 μM, 1 h, FIG. 13A, read-out: appKD for 6-TGDP) is 245 µM; at Rac1 (calculated by compensation equation from appKD 6-TGDP and trueKD GDP, read-out: trueKD 6-TGDP) it was 158 µM. Besides, the “binding interaction with 6-TGDP weaker than with GDP” value in the assay on Rho GTPases was approximately 15 fold.
